Series [1] can be described thus: Estimated water content of crystalline forms obtained by equilibration under defined relative humidity. It counts as physicochemical. From the text:
Forms C, D, E and F can be prepared according to a process, wherein Fluvastatin sodium is exposed to an atmosphere having a defined relative humidity. […] As a rule the estimated water content can range from 3-6%. […] As a rule the estimated water content can range from 6-12%. […] As a rule the estimated water content can range from 15-22%. […] As a rule the estimated water content can range from 24-32%.

Series [2] in a line: Water content of highly crystalline Form A (Karl Fisher titration). Format: physicochemical. How it is done: Highly crystalline Fluvastatin sodium Form A can generally be prepared by equilibration of an aqueous suspension or solution of Fluvastatin sodium for several hours at temperatures from about 0 to 10° C. and subsequent drying by lyophilization. The process can be accelerated by additional seeding with crystals of Form A during the equilibration period. A characteristic X-ray powder diffraction pattern for highly crystalline Form A is depicted in FIG. 1. The crystallinity of this material is estimated by the powder diffraction spectrum to be more than 90%. The estimated water content is below 2%.
A 30 ml aqueous solution of 30° C. containing ca. 3 grams of Fluvastatin sodium was cooled to about 2° C. and was allowed to stand at this temperature for 6 hours. Subsequently, the off-white coloured suspension was frozen using a dry-ice bath and dried by lyophilization for 24 hours. […] From its X-ray powder diffraction pattern it was estimated that the crystallinity is more than 90%, see FIG. 1.

For series [3] the following is noted: compared with Form A or the amorphous form; from WO-A-97/49681 / U.S. Pat. No. 6,124,340; cited from earlier work.

Regarding `CC(C)n1c(/C=C/[C@H](O)C[C@H](O)CC(=O)[O-])c(-c2ccc(F)cc2)c2ccccc21.[Na+]` (racemic) [Form F, (±)-7-(3-(4-fluorophenyl)-1-(1-methylethyl)-1H-indol-2-yl)-3,5-dihydroxy-6-heptenoic acid monosodium salt], the estimated water content in series [1] (equilibration under relative humidity from about 80 to 90% (for example several days)) is recorded as 24-32%. For `CC(C)n1c(/C=C/[C@H](O)C[C@H](O)CC(=O)[O-])c(-c2ccc(F)cc2)c2ccccc21.[Na+]` (racemic) [Form A, (±)-7-(3-(4-fluorophenyl)-1-(1-methylethyl)-1H-indol-2-yl)-3,5-dihydroxy-6-heptenoic acid monosodium salt], the water content entry in series [2] (Karl Fisher titration, Example 1, lyophilized 24 hours) is on record as “below 2%”. The estimated water content entry in series [2] (aqueous suspension or solution equilibrated at about 0 to 10° C., then lyophilization) was “below 2%”. For the molecule `CC(C)n1c(/C=C/[C@H](O)C[C@H](O)CC(=O)[O-])c(-c2ccc(F)cc2)c2ccccc21.[Na+]` (racemic) [Form C, (±)-7-(3-(4-fluorophenyl)-1-(1-methylethyl)-1H-indol-2-yl)-3,5-dihydroxy-6-heptenoic acid monosodium salt], the estimated water content in series [1] (equilibration under relative humidity from about 15 to 25% (for example 6 to 24 hours)) is reported as 3-6%. Turning to `CC(C)n1c(/C=C/[C@H](O)C[C@H](O)CC(=O)[O-])c(-c2ccc(F)cc2)c2ccccc21.[Na+]` (racemic) [Form D, (±)-7-(3-(4-fluorophenyl)-1-(1-methylethyl)-1H-indol-2-yl)-3,5-dihydroxy-6-heptenoic acid monosodium salt], the estimated water content in series [1] (equilibration under relative humidity from about 30 to 50% (for example 6 to 24 hours)) is on record as 6-12%. Consider `CC(C)n1c(/C=C/[C@H](O)C[C@H](O)CC(=O)[O-])c(-c2ccc(F)cc2)c2ccccc21.[Na+]` (racemic) [Form B, (±)-7-(3-(4-fluorophenyl)-1-(1-methylethyl)-1H-indol-2-yl)-3,5-dihydroxy-6-heptenoic acid monosodium salt], for which, in series [3], the hygroscopicity entry is recorded as “less hygroscopic than Form A or the amorphous form”. As for `CC(C)n1c(/C=C/[C@H](O)C[C@H](O)CC(=O)[O-])c(-c2ccc(F)cc2)c2ccccc21.[Na+]` (racemic) [Form E, (±)-7-(3-(4-fluorophenyl)-1-(1-methylethyl)-1H-indol-2-yl)-3,5-dihydroxy-6-heptenoic acid monosodium salt], the estimated water content in series [1] (equilibration under relative humidity from about 55 to 75% (for example several days)) is 15-22%.
